Reference: patent publication US20260008760A1, “DIPEPTIDYL PEPTIDASE 1 INHIBITORS AND USES THEREOF” (Insmed Incorporated, priority 2024, published 2026)

Key:
DPP1 in HL-60 cells = DPP1 in HL-60 cells (Homo sapiens, UniProt P53634); assay: DPP1 Cell IC50 assay; format: cell-based; set-up: host or cells: HL-60 cells; conditions: 60 min pre-incubation, H-Gly-Phe-AFC substrate, average of n runs, read-out: Avg. IC50 (DPP1 Cell IC50 value ranges)
How it was run: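 HL-60 cells in PBS (5×10^5 live cells per mL) pre-incubated with compound (0.5% DMSO) 60 min at 37° C, 5% CO2, then H-Gly-Phe-AFC substrate (500 μM stock) added for 30 min. Fluorescence at 400/505 nm; % inhibition vs vehicle wells, IC50 from four-parameter logistic fit.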

active mouse DPP1 enzyme = target: T1, active mouse DPP1 enzyme (Mus musculus, UniProt P97821); assay: Mouse DPP1 Enzyme IC50 Assay; format: biochemical; conditions: active mouse DPP1 enzyme, H-Gly-Arg-AMC substrate, 10 minutes pre-incubation at 37° C., pH 5.5; average of n runs; read-out: Avg. IC50 (Mouse DPP1 enzyme IC50 value ranges)
T1 construct: Each subunit is composed of an N-terminal fragment, a heavy chain and a light chain; purchased R&D Systems
T1 sequence (P97821 25-134 limits assumed): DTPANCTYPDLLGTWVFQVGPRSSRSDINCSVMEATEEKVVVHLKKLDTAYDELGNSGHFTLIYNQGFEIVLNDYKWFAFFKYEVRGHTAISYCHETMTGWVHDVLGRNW
T1 sequence (P97821 231-393 limits assumed): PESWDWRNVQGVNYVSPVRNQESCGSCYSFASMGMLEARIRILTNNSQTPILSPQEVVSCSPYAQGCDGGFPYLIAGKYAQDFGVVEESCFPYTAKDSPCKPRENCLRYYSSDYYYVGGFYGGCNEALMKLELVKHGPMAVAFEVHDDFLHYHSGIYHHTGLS
T1 sequence (P97821 394-462 limits assumed): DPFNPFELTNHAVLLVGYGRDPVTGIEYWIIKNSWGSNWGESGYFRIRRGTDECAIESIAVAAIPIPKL
Method: Example 96: Mouse DPP1 Enzyme IC50 Assay
Test articles were applied to active mouse DPP1 enzyme (R&D Systems; Minneapolis, MN) in Assay Buffer (50 mM MES pH 5.5, 50 mM NaCl, 5 mM DTT) in a total reaction volume of 125 μL. 25 μL of compound in Assay Buffer plus […] was first added to 50 μL of active mouse DPP1 enzyme at a concentration of 62.5 pg/μL and allowed to pre-incubate for 10 minutes at 37° C. after which 50 μL of […] H-Gly-Arg-AMC substrate (Bachem; St. Torrance, CA) was added, giving final substrate concentration of 400 µM and a final DMSO concentration of […]. Substrate cleavage was measured for 90 minutes at 37° C., with fluorescence at Excitation/Emission 350/450 nm measured every 5 minutes. DPP1 concentration was interpolated based on its activity relative to a standard curve of recombinant active mouse DPP enzyme. IC50 values for each compound were calculated via the XLFit (IDBS Version 5.3.1.3) Add-On to Microsoft Excel using the four parameter fit equation y=(A+((B−A)/(1+((C/x)^D)))), which appears as equation number 205 (4 Parameter Logistic Model or Sigmoidal Dose-Response Model) in XLFit. Default constraints were used for each Parameter. IC50 was defined as the compound concentration at which 50% of enzyme activity was inhibited when compared to the no-compound control.
In Table 2, *** represent average IC50≤5 nM, ** represents average IC50 in the range of 5-20 nM, and * represents average IC50 in the range of ≥20 nM, where the designations were made solely based on the average value without taking into account of the standard deviations.

Sequence of DPP1 in HL-60 cells (P53634 25-463): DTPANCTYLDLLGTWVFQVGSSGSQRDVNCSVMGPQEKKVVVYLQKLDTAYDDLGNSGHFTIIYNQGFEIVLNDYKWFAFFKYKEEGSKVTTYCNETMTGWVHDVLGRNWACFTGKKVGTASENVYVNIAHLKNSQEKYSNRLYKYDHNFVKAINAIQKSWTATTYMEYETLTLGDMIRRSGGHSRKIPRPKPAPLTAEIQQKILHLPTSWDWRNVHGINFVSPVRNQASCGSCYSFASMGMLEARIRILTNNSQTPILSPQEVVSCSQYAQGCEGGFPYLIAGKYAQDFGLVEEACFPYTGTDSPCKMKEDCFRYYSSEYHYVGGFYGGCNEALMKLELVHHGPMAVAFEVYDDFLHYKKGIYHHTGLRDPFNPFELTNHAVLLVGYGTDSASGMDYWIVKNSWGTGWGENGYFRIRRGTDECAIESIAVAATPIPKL

Row | SMILES | IC50 (DPP1 in HL-60 cells) [nM] | IC50 (active mouse DPP1 enzyme) [nM]
1 | N#C[C@H](Cc1ccc(-c2cnc3c(n2)CCCC3)cc1)NC(=O)[C@@H]1CNCCCO1 [Compound A11, (2S)—N-[(1S)-1-cyano-2-[4-(5,6,7,8-tetrahydroquinoxalin-2-yl)phenyl]ethyl]-1,4-oxazepane-2-carboxamide] | > 2.5 | > 20
2 | CN1CCCC2(C1)C(=O)N(C)c1ccc(-c3ccc(C[C@@H](C#N)NC(=O)[C@@H]4CNCCCO4)cc3)cc12 (stereo partly drawn) [Compound 18, (2S)—N-[(1S)-1-cyano-2-(4-{1,1′-dimethyl-2-oxospiro[indole-3,3′-piperidin]-5-yl}phenyl)ethyl]-1,4-oxazepane-2-carboxamide] | > 2.5 | > 20
